According to patent US12637424B2, “Pharmaceutical salt of an arylpyrrole derivative” (SENTINEL ONCOLOGY LIMITED, priority 2020, dated 2026):
Counter-ions that a name gives are not always drawn.

How the values were obtained:
Type in all cases: physicochemical
[1] = Gravimetric vapour sorption (GVS)
Procedure: The sample was maintained at a constant temperature (25° C.) by the instrument controls. The humidity was controlled by mixing streams of dry and wet nitrogen, with a total flow of 250 ml·min-1. The instrument was verified for relative humidity content by measuring three calibrated Rotronic salt solutions (10-50-88%). The weight change of the sample was monitored as a function of humidity by a microbalance (accuracy+/−0.005 mg). A defined amount of sample was placed in a tared mesh stainless steel basket under ambient conditions. A full experimental cycle typically consisted of three scans (sorption, desorption and sorption) at a constant temperature (25° C.) and 10% RH intervals over a 0-90% range (60 minutes for each humidity level).

[2] = Gravimetric solubility in water; details: thermodynamic from solid, gravimetric solubility protocol
Procedure: The solubility in water of the salts was measured using a gravimetric solubility protocol. 1 ml of water was charged into crystallisation tubes. The solid was weighed into a tared glass vial, added in portions to the solutions and the vial weighed after each addition until a hazy solution was observed. The amount in mg was then calculated to give the solubility in mg/ml.

ICH storage stability = test: ICH storage stability
Excerpt: The stability protocol followed ICH guidelines. […] Following storage, these samples were removed from the stability cabinet and analysed for appearance, water content by Karl Fischer titration (KF), and purity. No change in water content or chemical purity by HPLC was observed over six months. […]

[3] = Solubility in (2-hydroxypropyl)-β-cyclodextrin 20% w/v in water; details: continuous stirring, gentle warming to 40° C.
[4] = Powder density and flowability
Procedure: The compound was allowed to settle prior to weighing with approximately 40 mL volume occupied and bulk density calculated. […] The tap density was then calculated.

[5] = calculated from bulk and tap density

In the case of `CN(C)CCNC(=O)c1ccc(-c2ccc(-c3ccc(Cl)cc3)n2-c2ccccc2C(F)(F)F)cc1` [(+)-L-tartaric acid salt, (R)-4-[5-(4-chlorophenyl)-1-[2-(trifluoromethyl)-phenyl]pyrrol-2-yl]-N-[2-(dimethylamino)-ethyl]benzamide (+)-L-tartaric acid salt], the “moisture uptake (surface moisture)” value ([1]; at 90% RH) is reported as < 1%.

With `CN(C)CCNC(=O)c1ccc(-c2ccc(-c3ccc(Cl)cc3)n2-c2ccccc2C(F)(F)F)cc1` (single isomer, unassigned) [Atropisomer A-2 Tartrate Pattern B salt] the solubility [2] was 7500 µg/mL, the Appearance (ICH storage stability; T = 0) was “A white solid” and the “Chemical purity by HPLC” value (ICH storage stability; T = 0) was 99.60%. The “Water content by KF” value (ICH storage stability; T = 0) was 0.2% w/w, the Appearance (ICH storage stability; T = 6 month, 25° C./60% RH) was “A white solid” and the “Chemical purity by HPLC” value (ICH storage stability; T = 6 month, 25° C./60% RH) was 99.60%. For the same compound, the “Water content by KF” value (ICH storage stability; T = 6 month, 25° C./60% RH) was 0.2% w/w, the Appearance (ICH storage stability; T = 6 month, 40° C./75% RH) was “A white solid” and the “Chemical purity by HPLC” value (ICH storage stability; T = 6 month, 40° C./75% RH) was 99.60%. The “Water content by KF” value (ICH storage stability; T = 6 month, 40° C./75% RH) was 0.2% w/w, the “change in water content or chemical purity by HPLC” value (ICH storage stability; over six months, 25° C./60% RH and 40° C./75% RH) was “No change” and the “concentration achieved in solution” value [3] was > 100000 µg/mL. The powder bulk density [4] was 0.55 g/mL, the tap density [4] was ~0.659 g/mL and the “Carr's index” value [4, 5] was 16.5%. For the same compound, the Hausner ratio [4, 5] was 1.19, the flowability ([4]; descriptor from Carr's index and Hausner ratio) was “fair” and the “moisture content before the first desorption” value ([1]; GVS, 25° C.) was “ca. 0.3%”. For the same compound, the “moisture taken up between 80 and 90% RH” value ([1]; GVS, 25° C., 80-90% RH) was “ca. 0.8%”.

A solubility [2] of 6700 µg/mL was found for `CN(C)CCNC(=O)c1ccc(-c2ccc(-c3ccc(Cl)cc3)n2-c2ccccc2C(F)(F)F)cc1` (single isomer, unassigned) [Atropisomer A-2 Tartrate Pattern A salt] in this work.
